Tests used:
[1] = Singlet oxygen generation (DPBF absorption, 520 nm laser); type: physicochemical; conditions: for Singlet oxygen quantum yield (%): DPBF 40 μM in EtOH, 520 nm laser 0.3 mW
U87 glioblastoma cells = assay: Phototoxicity assay in U87 glioblastoma cells, Annexin V-Pacific Blue staining (fluorescence microscopy, flow cytometry); type: cell-based
Protocol: Compound was administered at 100 μM and illuminated under 520 nm light. Annexin V-Pacific Blue was used as a stain for dead cells. Red fluorescence was used to confirm uptake of PS-SCOTfluor-13 into cells.
Phototoxicity assays of PS-SCOTfluor-13 and 2-NBDG in U87 glioblastoma cells were determined. Compounds administered at 100 μM and illuminated under 520 nm light. Annexin V-Pacific Blue was used as a stain for dead cells. Red fluorescence (for PS-SCOTfluor-13) and green fluorescence (for 2-NBDG) was used to confirm uptake of the compounds into cells.

[2] = system: U87-mCrimson glioblastoma cells; assay: U87-mCrimson glioblastoma transplant in zebrafish embryos, 520 nm irradiation; type: in vivo; conditions: compound injected, then 520 nm light
Protocol: Briefly, U87-mCrimson glioblastoma cells were injected into the yolk sac of zebrafish embryos. Cells were effectively transplanted as shown by fluorescence microscopy images. Zebrafish were then irradiated with 520 nm light alone or injected with PS-SCOTfluor-13 and then irradiated with 520 nm light.

[3] = 100 μM, illuminated under 520 nm light

SMILES	Singlet oxygen quantum yield (%) [1]	Cell death as detected by Annexin V staining (fluorescence microscopy) (U87 glioblastoma cells; [3])	further results
O=[N+]([O-])c1ccc(N[C@H]2C(O)O[C@H](CO)[C@@H](O)[C@@H]2O)c2nonc12 (stereo partly drawn) [2-NBDG, reference compound]	<1%	does not kill the cells after illumination	Uptake into U87 glioblastoma cells (fluorescence) (U87 glioblastoma cells; 100 μM): uptaken by U87 glioblastoma cells
CCN(CC)c1ccc([N+](=O)[O-])c2n[se]nc12 [PS-SCOTfluor-5, N,N-diethyl-7-nitrobenzo[c][1,2,5]selenadiazol-4-amine]	3%		
CCN(CC)c1cc(I)c([N+](=O)[O-])c2n[se]nc12 [PS-SCOTfluor-6, N,N-diethyl-6-iodo-7-nitrobenzo[c][1,2,5]selenadiazol-4-amine]	5%		
O=[N+]([O-])c1ccc(N[C@@H]2[C@@H](O)[C@H](O)[C@@H](CO)O[C@H]2O)c2nsnc12 [PS-SCOTfluor-13, (2R,3R,4R,5S,6R)-6-(hydroxymethyl)-3-((7-nitrobenzo[c][1,2,5]thiadiazol-4-yl)amino)tetrahydro-2H-pyran-2,4,5-triol]	24%	kills U87 glioblastoma cells only after irradiation with light	Activity as photosensitizer (summary of Table 1) [1]: high activity as photosensitizer; Cell death as detected by Annexin V staining (flow cytometry) (U87 glioblastoma cells; [3]): kills U87 glioblastoma cells only after irradiation with light but not without light; Effect of excess unlabelled glucose on uptake and cell death (U87 glioblastoma cells; competition with excess unlabelled glucose, Annexin V staining): reduces the uptake of PS-SCOTfluor-13 and subsequently cell death; Glioblastoma transplant (fluorescence of mCrimson reporter) [2]: reduction of the glioblastoma transplant
NC(CNc1ccc([N+](=O)[O-])c2n[se]nc12)C(=O)O (stereo not drawn) [PS-SCOTfluor-19, 2-amino-3-((7-nitrobenzo[c][1,2,5]selenadiazol-4-yl)amino)propanoic acid]	10%		
